Reference: PubChem BioAssay AID248 (DTP/NCI, 2004)
“And” between values parts separate entries of the source, which are not always exact repeats. Equal entries are not always repeated. Toxic doses and inconclusive results are not listed. Rule as the data show it: active = T/C of 150% or more; inactive = T/C below 125%.

System: L1210 leukemia ip in BDF1 mice, survival T/C
Experiment: NCI In Vivo Anticancer Drug Screen. Data for tumor model L1210 Leukemia (intraperitoneal) in B6D2F1 (BDF1) mice
Conditions: endpoint: mean survival time, higher = longer survival
Method in brief: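 Antitumor effect is assessed in tumor-bearing animals. Survival in the compound arm is compared with a vehicle-dosed control arm and expressed as their quotient.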

[1] = dose: 100.0 mg/kg/injection, schedule: Q04DX002 (ip), vehicle: Klucel (hydroxypropylcellulose) (HPC)
[2] = dose: 200.0 mg/kg/injection, schedule: Q04DX002 (ip), vehicle: Klucel (hydroxypropylcellulose) (HPC)
[3] = dose: 100.0 mg/kg/injection, schedule: Q01DX001 (ip), vehicle: saline
[4] = dose: 200.0 mg/kg/injection, schedule: Q01DX001 (ip), vehicle: saline
[5] = dose: 400.0 mg/kg/injection, schedule: Q01DX001 (ip), vehicle: saline
[6] = dose: 100.0 mg/kg/injection, schedule: Q04DX003 (ip), vehicle: saline with Tween-80
[7] = dose: 200.0 mg/kg/injection, schedule: Q04DX003 (ip), vehicle: saline with Tween-80
[8] = dose: 400.0 mg/kg/injection, schedule: Q04DX003 (ip), vehicle: saline with Tween-80
[9] = dose: 12.5 mg/kg/injection, schedule: Q01DX009 (ip), vehicle: Klucel (hydroxypropylcellulose) (HPC)
[10] = dose: 25.0 mg/kg/injection, schedule: Q01DX009 (ip), vehicle: Klucel (hydroxypropylcellulose) (HPC)
[11] = dose: 50.0 mg/kg/injection, schedule: Q01DX009 (ip), vehicle: Klucel (hydroxypropylcellulose) (HPC)
[12] = dose: 100.0 mg/kg/injection, schedule: Q01DX009 (ip), vehicle: Klucel (hydroxypropylcellulose) (HPC)
[13] = dose: 100.0 mg/kg/injection, schedule: Q04DX003 (ip), vehicle: Klucel (hydroxypropylcellulose) (HPC)
[14] = dose: 200.0 mg/kg/injection, schedule: Q01DX009 (ip), vehicle: Klucel (hydroxypropylcellulose) (HPC)
[15] = dose: 200.0 mg/kg/injection, schedule: Q04DX003 (ip), vehicle: Klucel (hydroxypropylcellulose) (HPC)
[16] = dose: 400.0 mg/kg/injection, schedule: Q04DX003 (ip), vehicle: Klucel (hydroxypropylcellulose) (HPC)

Measured: T/C

OC1CCN(C2(c3ccccc3)CCCCC2)CC1
inactive: [1] 104 % of control | [2] 86 % of control

CCCCC(=O)N/N=C/c1cccc(Br)c1
inactive: [3] 102 % of control | [4] 102 % of control | [5] 98 % of control

Nc1nc2[nH]cnc(=S)c2[nH]1
inactive: dose: 75.0 mg/kg/injection, schedule: Q01DX001 (ip), vehicle: saline 101 % of control

CNS(=O)(=O)c1ccccc1C(C)(O)c1ccccc1 (stereo not drawn)
inactive: [3] 97 % of control | [4] 103 % of control | [5] 97 % of control

CC12C=CC3(CCC4C(C)(C)C(O[N+](=O)[O-])C(=O)CC4(C)C3CC1=O)C2 (stereo not drawn)
inactive: dose: 75.0 mg/kg/injection, schedule: Q01DX009 (ip), vehicle: Klucel (hydroxypropylcellulose) (HPC) 108 % of control | dose: 100.0 mg/kg/injection, schedule: Q01DX001 (ip), vehicle: Klucel (hydroxypropylcellulose) (HPC) 92 % of control | dose: 150.0 mg/kg/injection, schedule: Q01DX009 (ip), vehicle: Klucel (hydroxypropylcellulose) (HPC) 100 % of control | dose: 200.0 mg/kg/injection, schedule: Q01DX001 (ip), vehicle: Klucel (hydroxypropylcellulose) (HPC) 95 % of control | dose: 300.0 mg/kg/injection, schedule: Q01DX009 (ip), vehicle: Klucel (hydroxypropylcellulose) (HPC) 98 % of control | dose: 400.0 mg/kg/injection, schedule: Q01DX001 (ip), vehicle: Klucel (hydroxypropylcellulose) (HPC) 88 % of control

O=c1[nH]c(=O)c2ncsc2[nH]1
inactive: [6] 103 % of control | [7] 110 % of control

CCCCOc1ccc(/C=N/NC(=O)CNC(=O)Nc2cccc([N+](=O)[O-])c2)cc1
inactive: dose: 50.0 mg/kg/injection, schedule: Q01DX009 (ip), vehicle: saline with Tween-80 96 % of control | dose: 100.0 mg/kg/injection, schedule: Q01DX009 (ip), vehicle: saline with Tween-80 96 % of control | dose: 200.0 mg/kg/injection, schedule: Q01DX009 (ip), vehicle: saline with Tween-80 93 % of control

Cc1ccc(NC(=O)OCCN(CCOC(=O)Nc2ccc(C)cc2)Cc2ccccc2)cc1
inactive: [3] 94 % of control | [4] 91 % of control | [5] 94 % of control

CC(C)(C)OC[CH2][Hg][I]
inactive: dose: 12.5 mg/kg/injection, schedule: Q04DX002 (ip), vehicle: Klucel (hydroxypropylcellulose) (HPC) 96 % of control | dose: 25.0 mg/kg/injection, schedule: Q04DX002 (ip), vehicle: Klucel (hydroxypropylcellulose) (HPC) 104 % of control

N#CC12CCC(c3ccccc31)c1ccccc12
inactive: dose: 100.0 mg/kg/injection, schedule: Q04DX002 (ip), vehicle: gum acacia 99 % of control | dose: 200.0 mg/kg/injection, schedule: Q04DX002 (ip), vehicle: gum acacia 101 % of control | dose: 400.0 mg/kg/injection, schedule: Q04DX002 (ip), vehicle: gum acacia 92 % of control

CC1=Nc2ccccc2N=C(C)C1
inactive: [3] 107 % of control | [6] 93 % of control | [4] 102 % of control | [7] 96 % of control

CC(C)CC(C=O)(CCN(C)C)c1cccc2ccccc12 (stereo not drawn)
inactive: dose: 12.5 mg/kg/injection, schedule: Q04DX003 (ip), vehicle: saline with Tween-80 107 % of control | dose: 25.0 mg/kg/injection, schedule: Q04DX003 (ip), vehicle: saline with Tween-80 103 % of control | dose: 50.0 mg/kg/injection, schedule: Q04DX003 (ip), vehicle: saline with Tween-80 92 % of control

CSCCC1NC(=O)C(C(C)=Nc2ccccc2)=C1O (stereo not drawn)
inactive: dose: 50.0 mg/kg/injection, schedule: Q01DX001 (ip), vehicle: carboxymethylcellulose (CMC) 101 % of control | dose: 100.0 mg/kg/injection, schedule: Q01DX001 (ip), vehicle: carboxymethylcellulose (CMC) 109 % of control | dose: 200.0 mg/kg/injection, schedule: Q01DX001 (ip), vehicle: carboxymethylcellulose (CMC) 104 % of control | dose: 400.0 mg/kg/injection, schedule: Q01DX001 (ip), vehicle: carboxymethylcellulose (CMC) 104 % of control

CCCCNC(=O)NC(=O)CS(=O)(=O)c1ccc(C)cc1
inactive: [6] 95 % of control | [7] 95 % of control | [8] 93 % of control

O=S1(=O)C2CCCC1C(Cl)CC2 (stereo not drawn)
inactive: dose: 15.0 mg/kg/injection, schedule: Q01DX001 (ip), vehicle: carboxymethylcellulose (CMC) 100 % of control

CCCCN1C(=O)C2CC=C3C=CN4C(C3C2C1=O)C1C(=O)N(CCCC)C(=O)C1C41CC(=O)N(CCCC)C1=O (stereo not drawn)
inactive: [9] 101 % of control | [10] 104 % of control | [11] 91 % of control | [12] 86 % of control | [13] 89 % of control | [14] 91 % of control | [15] 90 % of control | [16] 92 % of control

CCCCCCCCCCCCCCNCCCCCCCCCCCCCC
inactive: [11] 95 % of control | dose: 50.0 mg/kg/injection, schedule: Q04DX003 (ip), vehicle: Klucel (hydroxypropylcellulose) (HPC) 105 % of control | [12] 101 % of control | [13] 101 % of control | [15] 95 % of control

OC(CN1CCCCC1)c1ccc2oc3ccccc3c2c1 (stereo not drawn)
inactive: [1] 110 % of control | [2] 92 % of control

CC(C)C1=CC(=O)OC1C(O)C(C)C1CCC2C3CC=C4CC(O)CCC4(C)C3CCC12C (stereo not drawn)
inactive: [13] 102 % of control | [15] 96 % of control | [16] 94 % of control

O=C(O)CS(=O)(=O)c1nc2ccccc2[nH]1
inactive: dose: 100.0 mg/kg/injection, schedule: Q01DX009 (ip), vehicle: carboxymethylcellulose (CMC) 94 % of control | dose: 200.0 mg/kg/injection, schedule: Q01DX009 (ip), vehicle: carboxymethylcellulose (CMC) 91 % of control | dose: 400.0 mg/kg/injection, schedule: Q01DX009 (ip), vehicle: carboxymethylcellulose (CMC) 91 % of control

C/C(=N\NC(=O)c1ccccc1)c1ccc(-c2ccccc2)cc1
inactive: [12] 94 % of control | [14] 105 % of control | dose: 400.0 mg/kg/injection, schedule: Q01DX009 (ip), vehicle: Klucel (hydroxypropylcellulose) (HPC) 94 % of control

Cc1ccc(S(=O)(=O)N(C)Cc2ccccc2)cc1
inactive: [6] 95 % of control | [7] 101 % of control | [8] 101 % of control

CCOC(=O)C1CN(S(=O)(=O)c2ccc(C)cc2)c2ccccc2C(=O)C1/C(=C/C(=O)OC)C(=O)OC (stereo not drawn)
inactive: [13] 96 % of control | [15] 94 % of control | [16] 86 % of control

O=CC(=O)c1ccc(O)cc1
inactive: dose: 50.0 mg/kg/injection, schedule: Q01DX009 (ip), vehicle: saline sonified 114 % of control | dose: 50.0 mg/kg/injection, schedule: Q04DX003 (ip), vehicle: saline 111 % of control | dose: 66.0 mg/kg/injection, schedule: Q04DX003 (ip), vehicle: saline 97 % of control | dose: 100.0 mg/kg/injection, schedule: Q01DX009 (ip), vehicle: saline sonified 119 % of control | dose: 100.0 mg/kg/injection, schedule: Q04DX003 (ip), vehicle: saline 103 % of control and 111 % of control | dose: 150.0 mg/kg/injection, schedule: Q04DX003 (ip), vehicle: saline 103 % of control | dose: 200.0 mg/kg/injection, schedule: Q04DX003 (ip), vehicle: saline 117 % of control

Nc1nc(N)c(CCCOc2ccc(C(=O)O)cc2)c(N)n1
inactive: [9] 95 % of control | [10] 100 % of control | [11] 93 % of control
